Measured values published in patent publication US10711040B2, “Low substituted polymyxins and compositions thereof” (priority 2014, dated 2020).
Where “and” joins values, the source holds several entries; their conditions need not be identical. Identical values can stand only once.

Legend:
[1] = Tolerability in mice: clinical signs of toxicity, body weight, clinical scoring; details: mouse, in vivo
Protocol: (§1) Mice were treated with a mixture comprising 93% mono(N^γ-bis-sulfomethyl) Polymyxin E1 or CMS for 5 days and were monitored for clinical signs of toxicity and urine concentrations of KIM-1. […] The normal range of KIM-1 in mouse urine, as stated in the ELISA kit instruction, is 456-8048 pg/ml.
(§2) The mixtures were received as dry powder and were dissolved in the vials in sterile saline to the concentration stated in table 1, immediately prior to injection.
(§3) Once a day for 5 days, mice were treated subcutaneously in the neck region with 0.2 ml corresponding to the doses stated in Table 1. The dosing was based on a mean weight of 28 g.
All the tested mixtures were well tolerated by mice as determined by body weight and clinical scoring.

[2] = system: KIM-1 (kidney injury molecule-1); experiment: Nephrotoxicity in mice, urinary KIM-1 by ELISA; format: in vivo; details: 80 mg/kg subcutaneously once a day for 5 days; individual mice
Protocol: Nephrotoxicity was measured using KIM-1 (kidney injury molecule-1) as a biomarker of acute tubular necrosis.
as §1, §2, §3
Urine samples were collected at 24 hrs after the 2nd dosing and 4 hrs after the 5th dosing. Samples were stored at −80° C. until analysed for KIM-1 concentrations
Urine samples were thawed, centrifuged for 5 min at 2000 g and diluted ×50 prior to performing the ELISA according the instruction in the Quantikine ELISA mouse TIM-1/KIM-1/HAVCR Immunoassay kit.

[3] = system: Pseudomonas aeruginosa (strain PAX11045); experiment: Mouse model with pulmonary infection of Pseudomonas aeruginosa; format: in vivo; design: key to Clinical score at T = 19 / Clinical score at T = 22: 0: healthy; 1: minor clinical signs of infection and inflammation like piloerection in the skin, distress and social withdrawal; 2: moderate signs of infection like changed body position, changes in pattern of movement, lack of curiosity or changed activity.; 3: severe signs of infection like stiff movements, forced ventilation,; 4: severe pain, mouse was sacrificed immediately to minimize suffering; 5: The mouse was dead; details: dose 10 mg/kg, peritoneal
Protocol: A mouse model with pulmonary infections of Pseudomonas aeruginosa (strain PAX11045) were treated with peritoneal administration of Polymyxin E1, CMS E1 and mono bis-sulfomethylated Polymyxin E1. CFU is the calculated number of colony forming units in the lung tissue after 22 hours except for the non-treatment group of mice.

Substance: Colistimethate sodium [CMS]
- clinical signs of toxicity [1]: no clinical signs of toxicity

Substance: Gentamicin
- Urinary KIM-1 concentrations after 5 doses [2]: 12850 pg/mL and 5900 pg/mL and 5750 pg/mL

Substance: Polymyxin E1 [Polymyxin-E1]
- Clinical score at T = 19 ([3]; individual mice): 3 (6×) and 2
- Clinical score at T = 22 ([3]; individual mice): 4 (2×) and 2 and 3 (4×)
- mean log10 CFU ([3]; lung tissue after 22 hours): 4.43 log10 CFU
- log10 CFU lung ([3]; lung tissue after 22 hours, individual mice, 10 mg/kg): 5.65 log10 CFU and 4.08 log10 CFU and 6.06 log10 CFU and 4.05 log10 CFU and 3.78 log10 CFU and 3.70 log10 CFU and 3.72 log10 CFU
